Measurements as given in a melting point compilation (Tetko et al.; mined from patent text by program, amines drawn as free bases though some values may be those of a salt).

melting point	Compound
130 to 132 °C	C=CC[C@@H]1C[C@@H](COC(c2ccccc2)(c2ccccc2)c2ccccc2)N(Cc2ccc(OC)cc2)C1=O
172 to 174 °C	c1ccc2cc(CCNc3ncnc4ccccc34)ccc2c1
222 to 224 °C	CC(C)n1nc(-c2sc(NC(=O)c3ccc(CN4CCOCC4)cc3)nc2-c2ccccc2)ccc1=O
145 to 147 °C	O=C(O)CCC(=O)c1ccc(-c2ccc(Br)cc2F)cc1
208 to 211 °C	CS(=O)c1nnc2c(=O)c3ccccc3ccn12 (stereo unspecified)
211 °C	O=C1c2ccc([N+](=O)[O-])cc2COc2cc(Nc3ccc(F)cc3[N+](=O)[O-])ccc21
164 to 167 °C	N#CC(Cc1ccccc1)=NNc1ccc(C(O)(C(F)(F)F)C(F)(F)F)cc1
99.5 °C	CN(Cc1ccccc1)c1ccc(C(=O)c2ccccc2)cc1[N+](=O)[O-]
87 to 88 °C	OC(c1ccccc1)(c1ccccc1)C1CCN(CCCOc2ccccc2)CC1
> 300 °C	Cc1ccccc1-c1c(O)c2ccccc2[nH]c1=O
156 °C	Cc1cccc(-c2ccccc2C(=O)NCCc2ccccc2)c1N1C(=O)c2ccccc2C1=O
199 to 201 °C	CN(C)S(=O)(=O)c1ccc2c3c(cccc13)C(NCCCn1ccnc1)=N2
93 to 98 °C	COC(=O)C(C(=O)c1ccc(Cn2ccc3ccc(NC(=O)CC4CCCC4)cc32)c(OC)c1)S(=O)(=O)c1ccccc1 (stereo unspecified)
166 to 175 °C	Cc1cc(C(=O)N2Cc3ccc(C(=O)N(C)C[C@H](O)[C@H]4OC(=O)O[C@@H]4[C@H](O)CO)n3Cc3ccccc32)ccc1C1=CCCCC1
102 °C	CCOC(=O)C1(Cl)Oc2c(cc(C(=O)c3ccccc3F)c(OC)c2C)C1Cl (stereo unspecified)
231 to 235 °C	O=C(c1ccc(F)cc1)C1CCN(CCn2c(=O)[nH]c3sccc3c2=O)CC1
210 °C	Cc1csc2nc(-n3cccn3)nc(NCc3ccc4c(c3)OCO4)c12
112 to 114 °C	CCOC(=O)c1cnn(-c2ccc(OCC(C)(C)COC(=O)c3ccccc3)c(C#N)c2)c1
145 to 147 °C	CSc1ccc(C(=N)Nc2ccc(F)cc2)cc1
202 to 203 °C	Cc1oc(-c2ccccc2)nc1C(=O)COc1ccc(C#N)cc1
65 to 66 °C	O=C(CSc1ccc(Cl)cc1)c1ccccc1
168 to 169 °C	COC(C)(C)c1ccc(-c2cc(-c3c[nH]nc3-c3cccc(C)n3)ccc2F)nc1
109 °C	N#Cc1ccccc1Cn1cc(-c2ccnc(Cl)c2)n(-c2ccc(F)cc2)c1=O
125 to 128 °C	CCOC(=O)C(=O)Nc1nc(CN2CCN(C(c3ccccc3)c3ccccc3)CC2)cs1
212 to 215 °C	COc1ccc(-c2c3c(cc4ccc(OC(C)C)cc24)C(=O)NC3)cc1

melting point	Compound
178 to 180 °C	Cc1cc(C)c2cccc(OCc3c(Cl)ccc(S(=O)(=O)N4CCC[C@H]4C(=O)NCCCNC(=O)c4ccc(C=NN)cc4)c3Cl)c2n1
175 to 177 °C	Cn1c(Cc2cccc(C(F)(F)F)c2)nc2c(-c3cccc(C(=O)O)c3)cccc21
76 to 77 °C	O=C1C(=O)c2ccc(F)cc2C2=C1SCC1(CCN(CC(O)Cc3ccccc3)CC1)O2 (stereo unspecified)
78 °C	Cc1ccc(S(=O)(=O)OCC(O)(CC(C)(C)c2ccccc2)C(F)(F)F)cc1 (stereo unspecified)
104 to 106 °C	CC(=O)Nc1ccc(OCCOc2ccccc2)cc1[N+](=O)[O-]
259 to 261 °C	CNC(=O)C1CCCc2c1c1cc(OC)ccc1n2Cc1ccccc1 (stereo unspecified)
> 200 °C	O=C1N(Cc2ccccn2)c2cccc(Br)c2C12COc1cc3c(cc12)CCO3 (stereo unspecified)
120 °C	ON=C(c1cc(F)cc(F)c1)c1cccc2nc(N[C@@H]3CCc4ccccc43)ccc12
122 to 124 °C	COc1ccc(NC(=O)c2ccccc2C(c2ccc(O)cc2)c2ccc(O)cc2)c(OC)c1
116 °C	CCOCN(c1ccccc1CN1CCC(c2ccccc2)OC1=O)S(=O)(=O)C(F)(F)F (stereo unspecified)
120 to 122 °C	O=C(O)c1cc(OCc2ccccc2)ccc1OC1CCOC1=O (stereo unspecified)
114 to 116 °C	O=C(CC1=NCCN1)N1CCOc2ccc(S(=O)(=O)c3ccccc3)cc21
109 to 110 °C	CCCCc1nccc2ccc(C(=O)N[C@@H](Cc3cc(F)cc(F)c3)[C@H](O)CNCc3cccc(CC)c3)cc12
160 to 161 °C	COc1ccc(C(=O)NCc2ccc(NC3=NCCN3)cc2)cc1
103 to 105 °C	CCCc1cc(Cl)c2oc(C(=O)c3ccc(OC)cc3)c(C)c2c1OC(=O)c1ccc(OC)cc1
75 to 77 °C	Clc1nc(-c2ccccc2)cc2ccccc12
141 to 143 °C	c1ccc(-c2nc3c([nH]2)Cc2ccccc2-3)cc1
143 to 144 °C	COC(=O)c1cc(OCc2ccc(OCc3nc(-c4ccccc4)oc3C)c(OC)c2)nn1-c1ccccc1
243 to 251 °C	COc1ccc(N2C(=O)N(c3cccc(C(N)=O)c3)c3nc(Nc4cccc(CCN5CCN(C)CC5)c4)ncc3C2C)cc1 (stereo unspecified)
118 to 121 °C	CCCc1nc(C(O)CCC)c(C(N)=O)n1Cc1ccc(-c2ccccc2C(=O)O)cc1 (stereo unspecified)
234 to 237 °C	O=C(O)c1cc(C(c2ccccc2)(c2ccccc2)c2ccccc2)ccc1O
> 250 °C	O=C(Nc1ccc(-c2c[nH]c(=O)cn2)cc1)c1cccc([N+](=O)[O-])c1
255 to 256 °C	CCc1cc(C(=O)c2ccccc2F)c(-n2c(C)nnc2CNC(=O)c2cc3ccccc3[nH]2)s1
132 to 133 °C	O=C1NC(=O)C(Nc2cccc(-c3ccc(OCc4ccc5ccccc5n4)cc3)c2)S1 (stereo unspecified)
107 to 110 °C	N#CCC(=O)c1ccccc1C1(c2ccccc2)OCC(CCl)O1 (stereo unspecified)

The next lines start with the compound.

Compound	melting point
CN1C(=O)C(C)(C)N=C(c2ccccc2F)c2cc([N+](=O)[O-])cc(Br)c21	228 °C
CC(=O)OC[C@H]1OCC(=O)[C@@H](OC(C)=O)[C@@H]1OC(C)=O	86 to 88 °C
CCOC(=O)C=CN1C(C)(C)CC(OC(=O)CC(=O)OC2CC(C)(C)N(C=CC(=O)OCC)C(C)(C)C2)CC1(C)C	100 to 102 °C
CCCNC(=S)c1ccc2c(c1)N(C(C)CN(CC)CC)c1ccc(Cl)cc1S2 (racemic)	130 °C
COC(=O)CCCc1cc2cc(Cl)ccc2n1S(=O)(=O)c1ccc2c(c1)CCO2	132 to 137 °C
CC(C)C(NC(=O)N(C)Cc1ccccn1)C(=O)NC(Cc1ccccc1)C(O)C(O)C(Cc1ccccc1)NC(=O)C(NC(=O)N(C)Cc1ccccn1)C(C)C (stereo unspecified)	159 to 162 °C
O=c1ncc(Cl)cn1CC(O)CO (stereo unspecified)	136 to 138 °C
CCN(CC)Cc1cc(NC(=O)Nc2ccc(Oc3cc(NC)ncn3)cc2)cc(C(F)(F)F)c1	68 to 70 °C
OCn1nnc2ccccc21	148 °C
COc1cc2c(c(Cl)c1Cl)C(=O)C(c1ccccc1)(C1CCCC1)C2 (stereo unspecified)	105 to 108 °C
CCCCCCOC(=O)CC[C@@H](NC(=O)[C@@H](NC(=O)OC(C)(C)C)C(C)C)C(N)=O	94 to 95 °C
O=c1c2cnc(N3CCOCC3)nc2sn1CCN1CCCCC1	98 to 100 °C
O=C(CC(F)=C(F)F)Oc1ccc([N+](=O)[O-])cc1	58 to 62 °C
CC(=O)N1CCC(NC(=O)NC23CC4CC(CC(C4)C2)C3)CC1	202 to 204 °C
Cc1cc2c(c(C=O)c1C)C(C)(C)CCC2(C)C	74 to 80 °C
COc1ccc([C@H]2CC[C@H](c3ccc(OC)c(OC)c3)O2)cc1OC (relative stereo)	114 to 115 °C
COCCCc1ccc(C#CC2(O)CN3CCC2CC3)cc1 (stereo unspecified)	145 °C
COc1ccc(-c2coc3cc(OCC(O)CN4CCOCC4)ccc3c2=O)cc1OC (stereo unspecified)	135 to 136 °C
CCOC(=O)c1cn(C)c2sc(CN3CCOCC3)c(C)c2c1=O	172 to 173 °C
Cn1c(S(=O)(=O)CCCl)nnc1S(=O)(=O)CCCl	156 °C
CN1CCC(C2c3cccc4c3N(CC4)c3ccccc3N2C)CC1 (stereo unspecified)	138 to 139 °C

Compound	melting point
COCCc1nc2c(N)nc3ccccc3c2n1CCCCCCCCNC(=O)c1ccccc1	133 to 138 °C
O=C1c2cc(O)ccc2OCC1Cc1nccs1 (stereo unspecified)	150 to 152 °C
CCOC(=O)N1CCN(C2Cc3ccccc3Sc3cc(Cl)c(Cl)cc32)CC1 (stereo unspecified)	184 to 186 °C
O=C(Nc1ccccc1)N1Cc2sccc2C(O)C1 (stereo unspecified)	200 °C
CCCCCCCCc1ccc(CCC(CO)(CO)NC(C)=O)s1	58 to 60 °C
COC(=O)Nc1cc(O)c(Cl)cc1F	140 to 141 °C
COCCOCc1c(CN(C)CC(O)c2ccc(C#N)s2)sc2c(=O)c(C(=O)NCc3ccc(Cl)cc3)cn(C)c12 (stereo unspecified)	163 to 164 °C
O=c1cc(C(F)(F)F)ccn1-c1c(Cl)cc(C(Cl)Cl)cc1Cl	176 to 177 °C
COc1cccc(C(=O)NCC2CCCCC2)c1NC(=O)N[C@@H](Cc1ccc(NC(=O)c2c(Cl)cccc2Cl)cc1)C(=O)O	175 °C
CCCCSc1nnc(-c2ccc([N+](=O)[O-])cc2)s1	140 °C
CC(C)(C)OC(=O)N[C@H]1C(=O)N[C@H]1CON1C(=O)c2ccccc2C1=O (relative stereo)	218 to 219 °C
COCc1nc(OC)c(NS(=O)(=O)c2cccc(Cl)c2Cl)nc1Cl	193 to 196 °C
COC(=O)C1=C(C)Nc2nc(N3CCOCC3)nc(N3CCOCC3)c2C1c1cccc([N+](=O)[O-])c1 (stereo unspecified)	165 °C
COc1ccc(OCC(O)COc2cccc(O)c2C(C)=O)cc1 (stereo unspecified)	100 to 102 °C
CCCc1n[nH]c2c(=O)[nH]c(-c3cc(S(=O)(=O)N4CCN(C)CC4)ccc3OCC)nc12	236 to 239 °C
CCc1c2c(nc3cc(F)cc(F)c13)-c1cc3c(c(=O)n1C2)COC(=O)CC3(O)CC (stereo unspecified)	255 °C
CCOC(=O)C1=C(C)Nc2cc[nH]c(=O)c2C1c1cccs1 (stereo unspecified)	284 to 285 °C
COc1ccc2cc([C@H](C)C(=O)NOCC(=O)OC(C)(C)C)ccc2c1	82 to 84 °C
C#CCNC(=O)N1CC(c2ccc(Cl)c(Cl)c2)C1	106 to 108 °C
NS(=O)(=O)c1ccc(C=Nc2ccc(SSc3ccc(N=Cc4ccc(S(N)(=O)=O)cc4)cc3)cc2)cc1	200 to 230 °C
